Data taken from patent publication US10329304B2, “Compounds and methods for inhibition of hedgehog signaling and phosphodiesterase” (Vanderbilt University, priority 2014, dated 2019).
Entries after “also recorded” stand apart in the source; their conditions may differ. Read-outs that look alike come from different tables or passages of the source.

Assays:
[1] = Mouse echocardiography after IP injection; format: in vivo; conditions: for Heart rate: 5 mg/kg to 20 mg/kg IP
Protocol: As shown below (FIGS. 28 and 29), ionotropic effects are seen within 30 minutes of eggmanone administration to a mouse (20 mg/kg IP injection). […] Mechanistically compound EGM targets the hydrolase PDE4. In Human adult myocardium, PDE4 localizes strictly to the z-bands.

SmoM2-Light cells = assay: Cell viability of SmoM2-Light cells; format: cell-based
Protocol: Cancer cell lines were seeded in 96 well tissue culture plate at a low density (10,000 cells per well) and treated with varying concentrations of Eggmanone. After 72 hr incubation, CellTiter-Blue Cell Viability Assay (Promega, Madison, Wis.) was then performed according to manufacturer's protocol. Absorbance was then measured in a Modulus Microplate reader (Promega, Madison, Wis.) at 590 nm and compared to cells treated with DMSO.

[2] = tested on: PDE4D3-induced Hh reporter activity; assay: Hh reporter activity in Shh-Light2 cells transfected with PDE4D3; format: cell-based; conditions: 5 μM
Protocol: For Hh signaling assays, Shh-Light2 cells stably transfected with Gli-Luciferase reporter construct were used along with Shh-conditioned media, as previously described^7. Alternatively, 3 μM purmorphamine or 20 nM Smoothened agonist (SAG) (Santa Cruz Biotechnology, Santa Cruz, Calif.) was used to induce Hh signaling. Reporter cells were seeded in 96-well plates and incubated overnight with the various concentrations of eggmanone and Shh-conditioned media. To assess the effects of overexpression of Gli-2, PDE4D3 and DN-PDE4D3 on Hh signaling, mammalian expression vectors containing these constructs were transfected into Shh-Light2 cells in 96-well plates using Fugene6 (Roche), according to manufacturer's instructions. The transfected or Shh-stimulated cells were incubated overnight with the various concentrations of compound. The cells were then lysed, and cell extracts were subjected to Steady-Glo luciferase assay (Promega) according to manufacturer's instructions. The results were normalized to cell titer, as determined using Cell Titer-Glo luminescence assay (Promega).

Gli2 trafficking = assay: Gli2 ciliary localization and nuclear fraction western blot in NIH3T3 cells; format: cell-based; conditions: SAG 20 nM; for Gli2 localization in the primary cilium: 5 μM; for SAG-induced nuclear accumulation of full-length Gli2: Egm 10 μM, FSK 30 μM
BMP signaling (BRE-luc) = assay: BMP4-responsive reporter (BRE-luc) in C2C12BRA cells; format: cell-based; conditions: stimulated with BMP4 ligand
[3] = Lipophilic efficiency (LipE = pEC50 − cLogP) and cLogP
Summary of the method: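 pEC50 came from TM3-Gli-Luc Gli-responsive luciferase reporter cells stimulated with 20 nM SAG, with non-specific cytotoxicity monitored in parallel. LipE was calculated by subtracting cLogP from pEC50.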

Gli1 transcription = assay: Sufu−/− mouse embryonic fibroblasts qRT-PCR; format: cell-based; conditions: Gli1 and Ptch1
[4] = healthy wild type mice and mice with heart failure
[5] = Calculated as pEC50 - cLogP, Molinspiration Cheminformatics

Row | Structure (SMILES) | Heart rate [1] | Fractional shortening (FS) [1, 4] | Hh reporter activity induced by wild-type PDE4D3 overexpression [2] | Gli2 localization in the primary cilium (Gli2 trafficking) | SAG-induced nuclear accumulation of full-length Gli2 (Gli2 trafficking) | BMP4-responsive reporter (BRE-luc) activity (BMP signaling (BRE-luc)) | LipE [3, 5] | LipE ([3]; pEC50 - cLogP, Table 14) | Transcriptional inhibition in the Sufu−/− cell line, in words (Gli1 transcription) | also measured
1 | C=C(C)Cn1c(SCC(=O)c2cccs2)nc2sc3c(c2c1=O)CCCC3 [EGM, Eggmanone] | without increasing heart rate; also recorded: does not increase the heart rate | increases fractional shortening (FS) | abolished | significantly increased Gli2 localization in the cilium | abrogated | had no significant effects on BMP4-responsive reporter (BRE-luc) activity |  |  |  | End-diastolic left ventricular internal dimension (LVIDd) [1, 4]: decreases end-diastolic left ventricular internal dimension (LVIDd); Side effects ([1]; mice): no significant side effects; Time to return to baseline heart function ([1]; mice): ≤ 24 h; Viability of SmoM2 cells (SmoM2-Light cells; listed as Egm): rapid (within 24-hrs) decline in viability; Gli2 localization in the primary cilium (Gli2 trafficking; listed as Egm): significantly increased Gli2 localization in the cilia; SAG-induced nuclear accumulation of full-length Gli2 (Gli2 trafficking; listed as Egm): abrogated
2 | C=C(C)Cn1c(SCC(=O)c2cccs2)nc2sc3c(c2c1=O)CCCC3 [Eggmanone, 3-(2-methylallyl)-2-((2-oxo-2-(thiophen-2-yl)ethyl)thio)-5,6,7,8-tetrahydrobenzo[4,5]thieno[2,3-d]pyrimidine-4(3H)-one] | without increasing heart rate | increases fractional shortening (FS) and ejection fraction (EF) | abrogated; also recorded: abolished | significantly more Gli2 accumulated in Eggmanone-treated cilia than in controls | blunted the nuclear accumulation of the full-length Gli2 | did not affect BMP-responsive luciferase reporter activity; also recorded: had no significant effects on BMP4-responsive reporter (BRE-luc) activity |  |  |  | Time to ionotropic effects ([1]; 20 mg/kg IP injection): ≤ 30 min; Viability of SmoM2 cells (SmoM2-Light cells): efficiently and selectively killed SmoM2-Light cells; Hh reporter activity induced by wild-type PDE4D3 overexpression ([2]; listed as eggmanone): abrogated; Gli2 localization in the primary cilium (Gli2 trafficking; listed as eggmanone): more Gli2 accumulated in eggmanone-treated cilium than in controls; SAG-induced nuclear accumulation of full-length Gli2 (Gli2 trafficking; listed as eggmanone): blunted the nuclear accumulation of the full-length Gli2; BMP4-responsive reporter (BRE-luc) activity (BMP signaling (BRE-luc); listed as eggmanone): did not affect BMP-responsive luciferase reporter activity
3 | CCCn1c(SCC(=O)c2cccs2)nc2sc3c(c2c1=O)CCCC3 [Formula 9e] |  |  |  |  |  |  | 1.06 | 1.06 | general ability to inhibit transcriptional activity | 
4 | C=C(C)Cn1c(SCC(=O)c2ccccc2)nc2sc3c(c2c1=O)CCCC3 [Formula 9g] |  |  |  |  |  |  | −0.01 | −0.01 | general ability to inhibit transcriptional activity | 
